This note sets out measurements from the OPERA property sets (Mansouri et al. 2018).

Settings in the first series: not given
Take `CCO[Si](CC)(OCC)OCC`: the boiling point (usually the temperature of boiling at a given pressure) amounted to 158 °C.

In the case of `C1CCC2=NCCCN2CC1`, the ready biodegradability entry is “not readily biodegradable”.

In the case of `CC(C)CCOCCC(C)C`, the boiling point worked out at 172 °C, the log10 vapour pressure (mmHg) is 0.146 and the ready biodegradability entry is on record as “not readily biodegradable”.

Take `C1=CCNC1`: the boiling point was 90.5 °C.

For the compound `O=C(O)c1ccc(O)c(Cl)c1`, the melting point (commonly the temperature of the solid-liquid transition) was 171 °C and the ready biodegradability result is listed as “not readily biodegradable”.

As for `c1ccc(Nc2ccc(-c3ccc(Nc4ccccc4)cc3)cc2)cc1`, the melting point turned out to be 247 °C.

For `NS(=O)(=O)c1ccccc1`, the melting point was 151 °C and the ready biodegradability result was “not readily biodegradable”.

`O=C(c1ccccc1O)N1CCOCC1`: the melting point was 175 °C.

With `Clc1ccc(Cl)c(-c2ccc(Cl)c(Cl)c2Cl)c1`, the log10 Henry constant (atm·m³/mol) was -4.13, the log10 Koc (L/kg) worked out at 4.62 and the log10 vapour pressure (mmHg) is -4.77.

The compound `CCS(=O)(=O)O` came in with a melting point of -17 °C.

Take `O=[N+]([O-])c1ccccc1Cl`: the ready biodegradability result was “not readily biodegradable”.

In turn, `CCCCCCCCCCCCCCCC(=O)OC` yielded a log10 vapour pressure (mmHg) of -4.33 and a melting point of 30 °C.

The compound `Clc1cccs1` registered a boiling point of 128 °C, a log10 vapour pressure (mmHg) of 1.38 and a melting point of -71.9 °C.

The compound `C[C@@H]1C[C@H]2[C@@H]3C[C@H](F)C4=CC(=O)C=C[C@]4(C)[C@@]3(F)[C@@H](O)C[C@]2(C)[C@H]1C(=O)CO` returned a melting point of 242 °C.

Consider `CC(C)OC(=O)COc1ccc(Cl)cc1Cl`, for which the log10 vapour pressure (mmHg) is -3.63 and the melting point was 5 °C.

`Brc1ccc2c3c(cccc13)CC2` registered a boiling point of 335 °C and a melting point of 52 °C.

As to `Cc1ccc(O)c(C(C)(C)C)c1`, the boiling point worked out at 237 °C, the log10 vapour pressure (mmHg) was -1.6, the melting point was determined as 51.5 °C and the ready biodegradability entry is on record as “not readily biodegradable”.

For the compound `O=C(O)CCOc1cccc2ccccc12`, the melting point was determined as 146 °C.

Take `N#CCCN1CCCCC1`: the melting point is -6.8 °C.

In the case of `OC(c1ccc(Cl)cc1)(c1ccc(Cl)cc1)C(Cl)(Cl)Cl`, the log10 Koc (L/kg) turned out to be 3.7, the log10 vapour pressure (mmHg) is -6.4, the melting point is 77.5 °C and the ready biodegradability entry is listed as “not readily biodegradable”.

`CC(=O)CC(=O)CC(C)=O` returned a melting point of 49 °C.

Take `CCCOC(=O)OCCC`: the boiling point amounted to 168 °C.

On to `O=C(Cl)c1ccccc1`, for which the boiling point was 197 °C, the log10 vapour pressure (mmHg) is -0.155 and the melting point was -1 °C.

As for `COS(=O)OC`, the boiling point turned out to be 126 °C.

`CCC(O)(COC(N)=O)c1ccccc1` (stereo unspecified) returned a melting point of 55 °C.

On to `CC(=O)Oc1ccc(OC(C)=O)c(OC(C)=O)c1`, for which the boiling point turned out to be 300 °C.

Compound `CC1CC(OC(=O)C(O)c2ccccc2)CC(C)(C)C1` (stereo unspecified) showed a melting point of 56 °C.

As to `FC(Cl)Cl`, the boiling point worked out at 8.9 °C, the log10 vapour pressure (mmHg) amounted to 3.13 and the melting point is -135 °C.

Regarding `CC(C)(OC1CCCCC1)C(=O)O`, the melting point was determined as 75 °C.

Take `C=C(C)[C@H]1Cc2c(ccc3c2O[C@@H]2COc4cc(OC)c(OC)cc4[C@@H]2C3=O)O1`: the log10 Koc (L/kg) came to 4 and the melting point was 176 °C.

`CCCNC(C)C` displayed a boiling point of 96.9 °C.

The compound `C#CC(OC(=O)C1C(C=C(C)C)C1(C)C)/C(C)=C/CC` (stereo unspecified) had a boiling point of 296 °C and a log10 vapour pressure (mmHg) of -3.98.

The compound `CC1=CC(=O)NS(=O)(=O)O1` had a melting point of 123 °C.

`O=NN(CCCl)C(=O)NC1CCCCC1`: the melting point is 89 °C.

Consider `COC1=C[C@H](C)[C@H]2C[C@H]3OC(O)C[C@H]4C(C)=C(OC)C(=O)C([C@@]34C)[C@@]2(C)C1=O` (stereo partly specified), for which the melting point amounted to 227 °C.

Compound `CCCCOCCO` gave a boiling point of 168 °C, a log10 Henry constant (atm·m³/mol) of -5.8, a log10 Koc (L/kg) of 1.83 and a log10 vapour pressure (mmHg) of -0.0555. Moreover, the melting point was -74.8 °C and the ready biodegradability entry is “readily biodegradable”.

Compound `Cc1ncsc1C` returned a boiling point of 158 °C and a melting point of 83.5 °C.

In turn, `c1ccc(CSCc2ccccc2)cc1` returned a melting point of 49.5 °C.

Compound `Nc1ccc(C=O)cc1` displayed a melting point of 71.5 °C.

For the compound `CCCCCCCCCCCCO`, the boiling point was determined as 259 °C, the log10 Henry constant (atm·m³/mol) is -4.65, the log10 Koc (L/kg) was determined as 3.52 and the log10 vapour pressure (mmHg) is -3.07. Besides, the melting point was found to be 24 °C and the ready biodegradability entry is recorded as “readily biodegradable”.

Turning to `Cc1cccc2c1ccc1c3ccccc3ccc21`, the melting point amounted to 256 °C.

`CC(C(=O)O)c1ccc(-c2ccccc2)c(F)c1` (stereo unspecified) returned a melting point of 110 °C.

Consider `CCCCC(C#N)(Cn1ccnc1)c1ccccc1` (stereo unspecified), for which the melting point was 161 °C.

For `CCOP(=O)(Sc1ccccc1)Sc1ccccc1`, the log10 vapour pressure (mmHg) is -6.57.

The compound `O=C(CCl)C(Cl)(Cl)Cl` showed a boiling point of 183 °C and a melting point of 65 °C.

The same series, now with this note: fish.
As for `CS(C)=O`, the log10 BCF worked out at 0.6.

On to `CCOCC`, for which the log10 BCF stood at 0.73 and the log10 biotransformation half-life (days) was -0.7.

`Oc1nc(O)nc(O)n1` displayed a log10 BCF of -0.3.

As to `Nc1cc(Cl)ccc1Cl`, the log10 BCF amounted to 1.18 and the log10 biotransformation half-life (days) was -1.13.

In turn, `CC(C)CCOCCC(C)C` showed a log10 BCF of 2.23 and a log10 biotransformation half-life (days) of -0.45.

As for `NS(=O)(=O)c1ccccc1`, the log10 BCF was determined as 0.68 and the log10 biotransformation half-life (days) is -0.71.

Compound `Clc1ccc(Cl)c(-c2ccc(Cl)c(Cl)c2Cl)c1` registered a log10 BCF of 5.38 and a log10 biotransformation half-life (days) of 2.31.

In turn, `O=[N+]([O-])c1ccccc1Cl` came in with a log10 BCF of 1.17 and a log10 biotransformation half-life (days) of -0.58.

As for `Clc1cc(Cl)c(-c2cc(Cl)c(Cl)c(Cl)c2)cc1Cl`, the log10 biotransformation half-life (days) came out at 2.43.

`OC(c1ccc(Cl)cc1)(c1ccc(Cl)cc1)C(Cl)(Cl)Cl`: the log10 BCF came out at 3.79 and the log10 biotransformation half-life (days) amounted to 1.99.

Compound `C=C(C)[C@H]1Cc2c(ccc3c2O[C@@H]2COc4cc(OC)c(OC)cc4[C@@H]2C3=O)O1` registered a log10 BCF of 1.41 and a log10 biotransformation half-life (days) of -0.59.

`CCOP(=O)(Sc1ccccc1)Sc1ccccc1`: the log10 BCF came to 1.51 and the log10 biotransformation half-life (days) is -1.04.
